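In this assay, cells in 96-well plates receive the compound at five concentrations for 48 hours. Endpoints are linearly interpolated between the surrounding concentrations. At the GI50, growth is halved. TGI marks complete inhibition of growth.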
Legend:
Assay in all cases: NCI tumour cell line growth inhibition, 48 h
[1] = tested on: A498 renal
[2] = tested on: A549 NSCLC
[3] = tested on: CAKI-1 renal
[4] = tested on: CCRF-CEM leukemia
[5] = tested on: COLO 205 colon
[6] = tested on: DLD-1 colon
[7] = tested on: DMS 273 small cell lung
[8] = tested on: EKVX NSCLC
[9] = tested on: HCC-2998 colon
[10] = tested on: HCT-116 colon
[11] = tested on: HCT-15 colon
[12] = tested on: HL-60(TB) leukemia
[13] = tested on: HOP-62 NSCLC
[14] = tested on: HOP-92 NSCLC
[15] = tested on: HT29 colon
[16] = tested on: IGROV1 ovarian
[17] = tested on: K-562 leukemia
[18] = tested on: KM12 colon
[19] = tested on: KM20L2 colon
[20] = tested on: LOX IMVI melanoma
[21] = tested on: M19-MEL melanoma
[22] = tested on: MALME-3M melanoma
[23] = tested on: MCF7 breast
[24] = tested on: MOLT-4 leukemia
[25] = tested on: NCI-H226 lung
[26] = tested on: NCI-H23 lung
[27] = tested on: NCI-H460 lung
[28] = tested on: NCI/ADR-RES ovarian
[29] = tested on: OVCAR-3 ovarian
[30] = tested on: OVCAR-4 ovarian
[31] = tested on: OVCAR-5 ovarian
[32] = tested on: OVCAR-8 ovarian
[33] = tested on: P388 leukemia
[34] = tested on: P388/ADR leukemia
[35] = tested on: RPMI-8226 leukemia
[36] = tested on: RXF 393 renal
[37] = tested on: SF-268 CNS
[38] = tested on: SF-295 CNS
[39] = tested on: SF-539 CNS
[40] = tested on: SK-MEL-2 melanoma
[41] = tested on: SK-MEL-28 melanoma
[42] = tested on: SK-MEL-5 melanoma
[43] = tested on: SK-OV-3 ovarian
[44] = tested on: SN12C renal
[45] = tested on: SN12K1 renal
[46] = tested on: SNB-19 CNS
[47] = tested on: SNB-75 CNS
[48] = tested on: SNB-78 CNS
[49] = tested on: SW-620 colon
[50] = tested on: U251 CNS
[51] = tested on: UACC-257 melanoma
[52] = tested on: UACC-62 melanoma
[53] = tested on: UO-31 renal
[54] = tested on: XF 498 CNS
[55] = tested on: 786-0 renal
[56] = tested on: ACHN renal
[57] = tested on: BT-549 breast
[58] = tested on: DU-145 prostate
[59] = tested on: HOP-18 NSCLC
[60] = tested on: HS 578T breast
[61] = tested on: M14 melanoma
[62] = tested on: MDA-MB-231 breast
[63] = tested on: MDA-MB-435
[64] = tested on: MDA-N
[65] = tested on: NCI-H522 lung
[66] = tested on: PC-3 prostate
[67] = tested on: SR leukemia
[68] = tested on: T-47D breast
[69] = tested on: TK-10 renal
[70] = tested on: DMS 114 small cell lung

## COc1ccc(OC)c(C#N)c1C#N (tested in a mixture with another compound)
[1]
  TGI: > 100 µM
[2]
  TGI: > 100 µM
[3]
  TGI: > 100 µM
[4]
  TGI: > 100 µM
[5]
  TGI: > 100 µM
[6]
  TGI: > 100 µM
[7]
  TGI: > 100 µM
[8]
  TGI: > 88 µM
[9]
  TGI: > 100 µM
[10]
  TGI: > 100 µM
[11]
  TGI: > 100 µM
[12]
  TGI: > 100 µM
[13]
  TGI: > 100 µM
[14]
  TGI: > 100 µM
[15]
  TGI: > 100 µM
[16]
  TGI: > 100 µM
[17]
  TGI: > 100 µM
[18]
  TGI: > 100 µM
[19]
  TGI: > 100 µM
[20]
  TGI: > 100 µM
[21]
  TGI: > 100 µM
[22]
  TGI: > 100 µM
[23]
  TGI: > 100 µM
[24]
  TGI: > 100 µM
[25]
  TGI: > 100 µM
[26]
  TGI: > 100 µM
[27]
  TGI: > 100 µM
[28]
  TGI: > 100 µM
[29]
  TGI: > 100 µM
[30]
  TGI: > 100 µM
[31]
  TGI: > 100 µM
[32]
  TGI: > 100 µM
[33]
  TGI: > 100 µM
[34]
  TGI: > 100 µM
[35]
  TGI: > 100 µM
[36]
  TGI: > 100 µM
[37]
  TGI: > 100 µM
[38]
  TGI: > 100 µM
[39]
  TGI: > 100 µM
[40]
  TGI: > 100 µM
[41]
  TGI: > 100 µM
[42]
  TGI: > 100 µM
[43]
  TGI: > 100 µM
[44]
  TGI: > 100 µM
[45]
  TGI: > 100 µM
[46]
  TGI: > 100 µM
[47]
  TGI: > 100 µM
[48]
  TGI: > 100 µM
[49]
  TGI: > 100 µM
[50]
  TGI: > 100 µM
[51]
  TGI: > 100 µM
[52]
  TGI: > 100 µM
[53]
  TGI: > 100 µM
[54]
  TGI: > 100 µM

## COc1cc([C@@H]2c3cc4c(cc3[C@@H](OC3OC5CO[C@@H](c6cccs6)OC5C(O)C3O)[C@H]3COC(=O)[C@H]23)OCO4)cc(OC)c1O (stereo partly specified)
[55]
  TGI: 1.19 µM
[1]
  TGI: 3.51 µM
[2]
  TGI: 4.17 µM
[56]
  TGI: 2.12 µM
[57]
  TGI: 2.53 µM
[3]
  TGI: 2 µM
[4]
  TGI: 3.89 µM
[5]
  TGI: 5.06 µM
[6]
  TGI: 11.3 µM
[7]
  TGI: 3.03 µM
[58]
  TGI: 2.12 µM
[8]
  TGI: 4.33 µM
[9]
  TGI: 3.47 µM
[10]
  TGI: 10.7 µM
[11]
  TGI: 11.3 µM
[12]
  TGI: 1.35 µM
[59]
  TGI: 14.2 µM
[13]
  TGI: 0.866 µM
[14]
  TGI: 1.76 µM
[60]
  TGI: 4.71 µM
[15]
  TGI: 11.7 µM
[16]
  TGI: 13.3 µM
[17]
  TGI: 17.2 µM
[18]
  TGI: 5.06 µM
[19]
  TGI: 14.6 µM
[20]
  TGI: 4.4 µM
[61]
  TGI: 3.71 µM
[21]
  TGI: 12.4 µM
[22]
  TGI: 4.29 µM
[23]
  TGI: 15.6 µM
[62]
  TGI: 3.81 µM
[63]
  TGI: 10.7 µM
[64]
  TGI: 10.4 µM
[24]
  GI50: 0.0161 µM
  TGI: 0.473 µM
[25]
  TGI: 3.05 µM
[26]
  TGI: 4.44 µM
[27]
  TGI: 2.59 µM
[65]
  TGI: 4.16 µM
[28]
  TGI: 25 µM
[29]
  TGI: 6.89 µM
[30]
  TGI: 16.7 µM
[31]
  TGI: 11.7 µM
[32]
  TGI: 3.5 µM
[33]
  TGI: 1.93 µM
[34]
  TGI: 14.3 µM
[66]
  TGI: 21.9 µM
[35]
  TGI: 3.35 µM
[36]
  TGI: 3.38 µM
[37]
  TGI: 7.24 µM
[38]
  TGI: 1.2 µM
[39]
  TGI: 2.2 µM
[40]
  TGI: 4.37 µM
[41]
  TGI: 12.4 µM
[42]
  TGI: 3.31 µM
[43]
  TGI: 1.93 µM
[44]
  TGI: 2.33 µM
[45]
  TGI: 1.84 µM
[46]
  TGI: 9.24 µM
[47]
  TGI: 4 µM
[48]
  TGI: 10.4 µM
[67]
  TGI: 3.28 µM
[49]
  TGI: 9.5 µM
[68]
  TGI: 4.21 µM
[69]
  TGI: 6.89 µM
[50]
  TGI: 2.47 µM
[51]
  TGI: 12.3 µM
[52]
  TGI: 2.71 µM
[53]
  TGI: 12.1 µM
[54]
  TGI: 3.73 µM

## CCCCCCCCCCCCCCCCCCOP(=O)([O-])OCC[N+](C)(C)C
[55]
  TGI: 0.169 µM
[1]
  TGI: > 46.4 µM
[2]
  TGI: 5.13 µM
[56]
  TGI: 0.37 µM
[57]
  TGI: 5.82 µM
[3]
  TGI: 22.8 µM
[4]
  TGI: 2.52 µM
[5]
  TGI: 0.5 µM
[6]
  TGI: 16.9 µM
[70]
  TGI: 26.8 µM
[7]
  TGI: 13.4 µM
[8]
  TGI: 8.29 µM
[9]
  TGI: 7.01 µM
[10]
  TGI: 3.12 µM
[11]
  TGI: 3.24 µM
[12]
  TGI: 5.83 µM
[59]
  TGI: 30.1 µM
[13]
  TGI: 1.38 µM
[14]
  TGI: 1.07 µM
[15]
  TGI: 2.2 µM
[16]
  TGI: 26.1 µM
[17]
  TGI: 10.4 µM
[18]
  TGI: 0.632 µM
[19]
  TGI: 12.5 µM
[20]
  TGI: 1.96 µM
[21]
  TGI: 16.3 µM
[22]
  TGI: 3.38 µM
[23]
  TGI: 3.11 µM
[62]
  TGI: 3.5 µM
[24]
  TGI: 5.89 µM
[25]
  TGI: 3.31 µM
[26]
  TGI: 30.4 µM
[27]
  TGI: 1.94 µM
[65]
  TGI: 1.46 µM
[28]
  TGI: 5.22 µM
[29]
  TGI: 2.79 µM
[30]
  TGI: 1.29 µM
[31]
  TGI: 6.82 µM
[32]
  TGI: 2.39 µM
[33]
  TGI: 15.1 µM
[34]
  TGI: 27.3 µM
[35]
  TGI: 2.64 µM
[36]
  TGI: 23.1 µM
[37]
  TGI: 2.21 µM
[38]
  TGI: 3.49 µM
[39]
  TGI: 2.59 µM
[40]
  TGI: 3.11 µM
[41]
  TGI: 42.2 µM
[42]
  TGI: 17.5 µM
[43]
  TGI: 43.4 µM
[44]
  TGI: 1.53 µM
[45]
  TGI: 26.9 µM
[46]
  TGI: 47.9 µM
[47]
  TGI: 1.7 µM
[48]
  TGI: 15.8 µM
[67]
  TGI: > 100 µM
[49]
  TGI: 6.66 µM
[50]
  TGI: 4.71 µM
[51]
  TGI: 25.6 µM
[52]
  TGI: 20.8 µM
[53]
  TGI: 36.1 µM
[54]
  TGI: 25.4 µM
